# According to PubChem BioAssay (NCI):
#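 Method: 48-hour compound exposure of cells in 96-well plates, five concentrations, linear interpolation of endpoints. The concentration for full growth arrest is given as TGI.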
# Tests used:
# Experiment in all cases: inhibition of tumour cell growth, NCI panel, 48 h
# [1] = tested on: 786-0 renal
# [2] = tested on: A498 renal
# [3] = tested on: A549 NSCLC
# [4] = tested on: ACHN renal
# [5] = tested on: BT-549 breast
# [6] = tested on: CAKI-1 renal
# [7] = tested on: CCRF-CEM leukemia
# [8] = tested on: COLO 205 colon
# [9] = tested on: DU-145 prostate
# [10] = tested on: EKVX NSCLC
# [11] = tested on: HCC-2998 colon
# [12] = tested on: HCT-116 colon
# [13] = tested on: HCT-15 colon
# [14] = tested on: HL-60(TB) leukemia
# [15] = tested on: HOP-62 NSCLC
# [16] = tested on: HOP-92 NSCLC
# [17] = tested on: HS 578T breast
# [18] = tested on: HT29 colon
# [19] = tested on: IGROV1 ovarian
# [20] = tested on: K-562 leukemia
# [21] = tested on: KM12 colon
# [22] = tested on: LOX IMVI melanoma
# [23] = tested on: M14 melanoma
# [24] = tested on: MALME-3M melanoma
# [25] = tested on: MCF7 breast
# [26] = tested on: MDA-MB-231 breast
# [27] = tested on: MDA-MB-435
# [28] = tested on: MDA-N
# [29] = tested on: MOLT-4 leukemia
# [30] = tested on: NCI-H226 lung
# [31] = tested on: NCI-H23 lung
# [32] = tested on: NCI-H460 lung
# [33] = tested on: NCI-H522 lung
# [34] = tested on: NCI/ADR-RES ovarian
# [35] = tested on: OVCAR-3 ovarian
# [36] = tested on: OVCAR-4 ovarian
# [37] = tested on: OVCAR-5 ovarian
# [38] = tested on: OVCAR-8 ovarian
# [39] = tested on: PC-3 prostate
# [40] = tested on: RPMI-8226 leukemia
# [41] = tested on: RXF 393 renal
# [42] = tested on: SF-268 CNS
# [43] = tested on: SF-295 CNS
# [44] = tested on: SF-539 CNS
# [45] = tested on: SK-MEL-2 melanoma
# [46] = tested on: SK-MEL-28 melanoma
# [47] = tested on: SK-MEL-5 melanoma
# [48] = tested on: SK-OV-3 ovarian
# [49] = tested on: SN12C renal
# [50] = tested on: SNB-19 CNS
# [51] = tested on: SNB-75 CNS
# [52] = tested on: SR leukemia
# [53] = tested on: SW-620 colon
# [54] = tested on: T-47D breast
# [55] = tested on: TK-10 renal
# [56] = tested on: U251 CNS
# [57] = tested on: UACC-257 melanoma
# [58] = tested on: UACC-62 melanoma
# [59] = tested on: UO-31 renal
smiles,measurement,setting,value
COc1ccc(OC)c2c1C[C@@H]1C(C#N)N3[C@H](Cc4c(OC)ccc(OC)c4[C@@H]3C)C(=O)N1[C@H]2C (some centres undefined),TGI,[1],7.72 µM
same,TGI,[2],42.1 µM
same,TGI,[3],> 54.3 µM
same,TGI,[4],9.53 µM
same,TGI,[5],4.09 µM
same,TGI,[6],30.3 µM
same,TGI,[7],6.75 µM
same,TGI,[8],3.52 µM
same,TGI,[9],> 54.7 µM
same,TGI,[10],20.5 µM
same,TGI,[11],14.4 µM
same,TGI,[12],11.8 µM
same,TGI,[13],11.2 µM
same,TGI,[14],6.18 µM
same,TGI,[15],> 57.5 µM
same,TGI,[16],5.37 µM
same,TGI,[17],> 100 µM
same,TGI,[18],30.4 µM
same,TGI,[19],16.8 µM
same,TGI,[20],7.26 µM
same,TGI,[21],8.21 µM
same,TGI,[22],5.95 µM
same,TGI,[23],8.54 µM
same,TGI,[24],8.61 µM
same,TGI,[25],17.5 µM
same,TGI,[26],7.56 µM
same,TGI,[27],14 µM
same,TGI,[28],22 µM
same,TGI,[29],15.9 µM
same,TGI,[30],40.9 µM
same,TGI,[31],19.6 µM
same,TGI,[32],48 µM
same,TGI,[33],3.3 µM
same,TGI,[34],> 100 µM
same,TGI,[35],5.2 µM
same,TGI,[36],16.4 µM
same,TGI,[37],23.7 µM
same,TGI,[38],9.93 µM
same,TGI,[39],11.7 µM
same,TGI,[40],7.29 µM
same,TGI,[41],3.44 µM
same,TGI,[42],6.71 µM
same,TGI,[43],35.7 µM
same,TGI,[44],5.97 µM
same,TGI,[45],5.2 µM
same,TGI,[46],10.1 µM
same,TGI,[47],3.25 µM
same,TGI,[48],29.4 µM
same,TGI,[49],> 50.2 µM
same,TGI,[50],4.96 µM
same,TGI,[51],5.02 µM
same,TGI,[52],9.12 µM
same,TGI,[53],8.41 µM
same,TGI,[54],15.1 µM
same,TGI,[55],15.2 µM
same,TGI,[56],4.91 µM
same,TGI,[57],6.96 µM
same,TGI,[58],6.52 µM
same,TGI,[59],4.54 µM
